Here are results for twelve compounds from US4999363A, “Tricyclic compounds” (priority 1988, dated 1991).

Data set [1] deals with thrombus formation on cotton thread. Put plainly: Antithrombotic activity: thrombus formation on cotton thread in extracorporeal circulation path. It is filed as in vivo, Wistar male rats. The conditions noted are these: oral, rat, 2 hours prior, mean ± standard error, control 25.9 ± 1.2. The procedure: Effect of a test compound on thrombus formation on cotton thread which was kept in an extracorporeal circulation path for the artery and vein in anesthesized rats was examined in a manner similar to the method of Smith et al. [Br. J. Pharmacol., 77, 29 (1982)].
Wistar male rats weighing 250 to 400 g were anesthesized by intraperitoneal administration of sodium pentobarbital at a dose of 30 mg/kg and an extracorporeal circulation path made of a polyethylene tube having a length of 30 cm extending from the right carotid artery to the left jugular vein was installed. Cotton thread (No. 30) having a length of 5.5 cm was inserted into the circulation path and a weight of thrombus formed on the cotton thread during blood perfusion for 15 minutes was measured. Similar operations were performed twice and the total weight of thrombus formed by the two blood perfusions was shown as the weight of thrombus. […]

Another data set deals with dd strain male mice. Kind of data set: Acute toxicity test (MLD, mortality for seven days). To be noted: minimum lethal dose, 7 days; for Acute Toxicity (MLD) ip: intraperitoneal. In kind it is in vivo. The procedure: Using three dd strain male mice weighing 20±1 g, a test compound was orally (po; 300 mg/kg) or intraperitoneally (ip; 100 mg/kg) administered. MLD (the minimum lethal dose) was determined by observing the mortality for seven days after administration.

The target of data set [2] is T1, TXA2 /prostaglandin H2 receptor (Cavia porcellus, UniProt A0A286Y4I8).
T1 construct: platelet rich plasma (PRP) was obtained; endogenous in cells; host or cells: guinea pig (Hartley) platelets in platelet rich plasma
T1 sequence (A0A286Y4I8 1-347): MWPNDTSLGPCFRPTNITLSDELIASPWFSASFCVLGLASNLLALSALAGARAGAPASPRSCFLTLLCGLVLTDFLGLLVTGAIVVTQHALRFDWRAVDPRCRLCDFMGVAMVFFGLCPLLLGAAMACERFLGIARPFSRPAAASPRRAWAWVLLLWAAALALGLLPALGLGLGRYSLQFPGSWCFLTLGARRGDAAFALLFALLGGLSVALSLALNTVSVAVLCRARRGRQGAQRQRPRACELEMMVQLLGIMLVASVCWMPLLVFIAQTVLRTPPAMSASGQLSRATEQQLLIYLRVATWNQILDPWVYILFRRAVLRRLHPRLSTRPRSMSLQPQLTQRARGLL
Put plainly: Anti-aggregatory effect: inhibition of platelet aggregation induced by U-46619 (TXA2-antagonizing action). It is filed as cell-based, guinea pig (Hartley strain). To be noted: minimum concentration inhibiting aggregation by 30% or more; U-46619 0.5-1 μM; guinea pig PRP. The procedure: TEST ON ANTI A[…] (TXA2 -AN[…])
Using guinea pig platelet, influence of the compounds on platelet aggregation induced by U-46619 (9,11-dideoxy-9α,11a-methanoepoxyprostaglandin F2α; manufactured by Cayman Chemical Co., Ltd.) which was a TXA2 /prostaglandin H2 receptor stimulant was examined.
Male guinea pig (Hartley strain; body weight, 300 to 600 g) was anesthesized by intraperitoneal administration of sodium pentobarbital (30 mg/kg) and blood was collected from the descending aorta of the abdomen with a 1/10 volume of 3.8% trisodium citrate. By centrifugation (KC-70: manufactured by Kubota Co., Ltd.) at 800 rpm for 15 minutes, platelet rich plasma (PRP) was obtained, Platelet aggregation induced by U-46619 (0.5-1 μM) was determined by photometry [Born, G.V.R. et al., Nature (London), 194, 927-929 (1962)]. A test compound was pretreated for 3 minutes and the ability to inhibit aggregation was determined. The minimum concentration which inhibits platelet aggregation by 30% or more was defined as the minimum effective concentration (MEC) of the test compound.

The test system of another data set is TXA2 biosynthesis. Kind of data set: TXA2 biosynthesis inhibitory test (bovine platelet microsome, TXB2 by radioimmunoassay). It is filed as biochemical. To be noted: in 10 μM. The procedure: TXA2 BIOSYNTHESIS INHIBITORY TEST
After a mixture of 70 μl (40 μg of protein, 100 mM Tris-hydrochloridebuffer, pH 7.4) of bovine platelet microsome and 10 μl (10% methanol-containing 100 mM Tris-hydrochloride buffer) of a test compound solution was settled at 0° C. for 5 minutes, 20 μl of prostaglandin H2 solution (0.1 nmol, in Tris-hydrochloride buffer described above containing 20% acetone) as substrate was added to the mixture. Five minutes after, 2.9 ml of stopping solution [100 mM, Trishydrochloride buffer containing 0.1 μM of OKY-1581; Tromb. Res. 23, 145 (1981)] was added to stop the reaction.
TXA2 was unstable in the buffer solution, and nonenzymatically converted to TXB2. An amount of thromboxane B2 (TXB2) formed in the reaction solution was determined by radioimmunoassay [F. A. Fitzpatrick et al., Methods in Enzymology, 86, 286 (1982)]. An inhibition rate of the test compound was calculated according to the following equation. [formula]
The amount of TXB2 formed in control refers to a value obtained when the same reaction was carried out, using a solvent containing no test compound.
The amount of TXB2 formed in blank refers to a value obtained when the reaction was carried out in the system in which the stopping solution was added prior to adding substrate.

Turning to `O=C(O)COc1ccc(CCNS(=O)(=O)c2ccccc2)cc1` [BM13177], the “Weight of Thrombus” value is given as 24.8 ± 1.8 mg in data set [1] (30 mg/kg) and 18.9 ± 1.8 mg in data set [1] (100 mg/kg, **P < 0.01).

Regarding `O=C(O)Cc1ccc(CCNS(=O)(=O)c2ccc(Cl)cc2)cc1` [BM13505, reference compound], in the data set on dd strain male mice, the “Acute Toxicity (MLD) ip” value is listed as more than 100 mg/kg and the “Acute Toxicity (MLD) po” value is recorded as more than 300 mg/kg. For the same compound, the “TXA2 Antagonizing Activity (MEC)” value in data set [2] stood at 0.1 µg/mL. Moreover, in the data set on TXA2 biosynthesis, the “TXA2 Biosynthesis Inhibitory Activity Inhibition Rate” value is listed as 8%.

`O=C(O)c1ccc2c(c1)C(NCc1cccnc1)c1ccccc1CO2` (stereo not drawn) [Compound 9c, 11-[(3-Pyridyl)methyl]amino-6,11-dihydrodibenz[b,e]oxepin-2-carboxylic acid]: in the data set on dd strain male mice, the “Acute Toxicity (MLD) ip” value was more than 100 mg/kg and the “Acute Toxicity (MLD) po” value is more than 300 mg/kg. Moreover, the “TXA2 Antagonizing Activity (MEC)” value in data set [2] turned out to be 30 µg/mL. For the same compound, the “TXA2 Biosynthesis Inhibitory Activity Inhibition Rate” value with TXA2 biosynthesis amounted to 100%.

As to `O=C(O)c1ccc2c(c1)C(SCc1cccnc1)c1ccccc1CO2` (stereo not drawn) [Compound 14b, 11-[(3-Pyridyl)methyl]thio-6,11-dihydrodibenz[b,e]oxepin-2-carboxylic acid], in the data set on dd strain male mice, the “Acute Toxicity (MLD) ip” value is reported as more than 100 mg/kg and the “Acute Toxicity (MLD) po” value was more than 300 mg/kg. Further, in data set [2], the “TXA2 Antagonizing Activity (MEC)” value turned out to be 3 µg/mL. Moreover, the “TXA2 Biosynthesis Inhibitory Activity Inhibition Rate” value in the data set on TXA2 biosynthesis is listed as 100%.

For the compound `O=C(O)c1ccc2c(c1)C(=NCc1cccnc1)c1ccccc1CO2` [Compound 25b, 11-[(3-Pyridyl)methyl]imino-6,11-dihydrodibenz[b,e]oxepin-2-carboxylic acid], in the data set on dd strain male mice, the “Acute Toxicity (MLD) ip” value is given as more than 100 mg/kg and the “Acute Toxicity (MLD) po” value is listed as more than 300 mg/kg. In addition, the “TXA2 Antagonizing Activity (MEC)” value in data set [2] came out at 1 µg/mL. The “TXA2 Biosynthesis Inhibitory Activity Inhibition Rate” value with TXA2 biosynthesis is reported as 100%.

Take `O=C(O)c1ccc2c(c1)/C(=C/Cn1ccnc1)c1ccccc1CO2` [Compound E-37b', (E)-11-[2-(1-imidazolyl)ethylidene]-6,11-dihydrodibenz[b,e]oxepin-2-carboxylic acid 0.2 hydrate]: in the data set with dd strain male mice, the “Acute Toxicity (MLD) ip” value was more than 100 mg/kg and the “Acute Toxicity (MLD) po” value is more than 300 mg/kg. Also, the “TXA2 Antagonizing Activity (MEC)” value in data set [2] came out at 3 µg/mL. Moreover, the “TXA2 Biosynthesis Inhibitory Activity Inhibition Rate” value in the data set with TXA2 biosynthesis is 94%.

As for `COc1ccc2c(c1)ncn2C/C=C1\c2ccccc2COc2ccc(C(=O)O)cc21` [Compound E-61b, (E)-11-[2-(5-Methoxy-1-benzimidazolyl)ethylidene]-6,11-dihydrodibenz[b,e]oxepin-2-carboxylic acid], the “TXA2 Antagonizing Activity (MEC)” value in data set [2] amounted to 0.1 µg/mL. Also, in the data set with TXA2 biosynthesis, the “TXA2 Biosynthesis Inhibitory Activity Inhibition Rate” value worked out at 1%.

As for `COc1ccc2ncn(C/C=C3\c4ccccc4COc4ccc(C(=O)O)cc43)c2c1` [Compound E-62b, (E)-11-[2-(6-Methoxy-1-benzimidazolyl)ethylidene]-6,11-dihydrodibenz[b,e]oxepin-2-carboxylic acid], the “TXA2 Antagonizing Activity (MEC)” value in data set [2] came to 1 µg/mL. For the same compound, the “TXA2 Biosynthesis Inhibitory Activity Inhibition Rate” value with TXA2 biosynthesis worked out at 11%.

In the case of `COc1cc2ncn(C/C=C3\c4ccccc4COc4ccc(C(=O)O)cc43)c2cc1OC` [Compound E-101b, (E)-11-[2-(5,6-Dimethoxy-1-benzimidazolyl)ethylidene]-6,11-dihydrodibenz[b,e]oxepin-2-carboxylic acid], in the data set with dd strain male mice, the “Acute Toxicity (MLD) ip” value is recorded as more than 100 mg/kg and the “Acute Toxicity (MLD) po” value is on record as more than 300 mg/kg. Further, in data set [2], the “TXA2 Antagonizing Activity (MEC)” value came to 0.3 µg/mL. Besides, the “TXA2 Biosynthesis Inhibitory Activity Inhibition Rate” value with TXA2 biosynthesis is on record as 17%.

As for `Cn1cnnc1SC/C=C1\c2ccccc2COc2ccc(C(=O)O)cc21` [Compound E-156b, (E)-11-[2-[(4-Methyl-4H-1,2,4-triazol-3-yl)thio]ethylidene]-6,11-dihydrodibenz[b,e]oxepin-2-carboxylic acid], in the data set on dd strain male mice, the “Acute Toxicity (MLD) ip” value is recorded as more than 100 mg/kg and the “Acute Toxicity (MLD) po” value was more than 300 mg/kg. In data set [2], the “TXA2 Antagonizing Activity (MEC)” value is 1.0 µg/mL. Also, the “TXA2 Biosynthesis Inhibitory Activity Inhibition Rate” value with TXA2 biosynthesis was -10%.

As for `CN(C)CC/C=C1/c2ccccc2COc2ccc(CC(=O)O)cc21` [KW 4679, reference compound], in the data set on dd strain male mice, the “Acute Toxicity (MLD) ip” value is given as more than 100 mg/kg and the “Acute Toxicity (MLD) po” value is recorded as more than 300 mg/kg. Besides, the “TXA2 Antagonizing Activity (MEC)” value in data set [2] was determined as 30 µg/mL. Moreover, the “TXA2 Biosynthesis Inhibitory Activity Inhibition Rate” value in the data set with TXA2 biosynthesis turned out to be 1%.

Consider `C/C(=C\c1ccc(Cc2cccnc2)cc1)C(=O)O` [OKY 1581, reference compound], for which, in the data set on dd strain male mice, the “Acute Toxicity (MLD) ip” value is recorded as more than 100 mg/kg and the “Acute Toxicity (MLD) po” value is more than 300 mg/kg. In addition, the “TXA2 Antagonizing Activity (MEC)” value in data set [2] came out at 30 µg/mL. In the data set on TXA2 biosynthesis, the “TXA2 Biosynthesis Inhibitory Activity Inhibition Rate” value is reported as 100%.
